Measured values from article PMC12785651, “The Role of Active Site Hydrophobic Interactions in Facilitating Catalysis in Human Terminal Deoxynucleotidyl Transferase” (International Journal of Molecular Sciences, 2025).

Legend:
[1] = target: T1, TdT (human terminal deoxynucleotidyl transferase, hTdT) (Homo sapiens, UniProt P04053, F404W); assay: microscale thermophoresis (Monolith NT.[…]); assay type: binding; details: 50 mM Tris-HCl pH 8.0, 5 mM MnCl2, 37 °C; no primer listed; Hill coefficient fixed at 2; labelled compound (fluorescein); read-out: Kd, μM / Flu-dUTP
T1 construct: gene DNTT; expression per earlier publication
T1 sequence (P04053 whole entry F404W): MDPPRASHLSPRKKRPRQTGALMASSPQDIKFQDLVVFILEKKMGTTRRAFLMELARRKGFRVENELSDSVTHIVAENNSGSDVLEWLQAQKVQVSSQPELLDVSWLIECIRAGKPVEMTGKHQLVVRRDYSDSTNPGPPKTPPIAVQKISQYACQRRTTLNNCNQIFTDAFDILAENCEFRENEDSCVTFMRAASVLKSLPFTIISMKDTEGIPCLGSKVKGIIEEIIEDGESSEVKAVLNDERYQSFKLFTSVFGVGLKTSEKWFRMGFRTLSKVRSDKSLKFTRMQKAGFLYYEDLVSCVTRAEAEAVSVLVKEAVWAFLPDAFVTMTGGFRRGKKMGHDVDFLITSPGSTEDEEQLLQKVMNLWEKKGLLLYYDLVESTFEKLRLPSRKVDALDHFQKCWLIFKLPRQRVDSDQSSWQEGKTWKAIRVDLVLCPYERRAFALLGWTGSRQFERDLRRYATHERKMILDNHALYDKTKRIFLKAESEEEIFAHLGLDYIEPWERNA

[2] = target: T2, TdT (human terminal deoxynucleotidyl transferase, hTdT) (Homo sapiens, UniProt P04053, L397A); assay: microscale thermophoresis (Monolith NT.[…]); assay type: binding; details: 50 mM Tris-HCl pH 8.0, 5 mM MnCl2, 37 °C; no primer listed; Hill coefficient fixed at 2; labelled compound (fluorescein); read-out: Kd, μM / Flu-dUTP
T2 construct: gene DNTT; expression per earlier publication
T2 sequence (P04053 whole entry L397A): as the sequence (P04053 whole entry F404W) above, with L397A, W404F counted along it

[3] = target: T3, TdT (human terminal deoxynucleotidyl transferase, hTdT) (Homo sapiens, UniProt P04053, F404A); assay: microscale thermophoresis (Monolith NT.[…]); assay type: binding; details: 50 mM Tris-HCl pH 8.0, 5 mM MnCl2, 37 °C; no primer listed; Hill coefficient fixed at 2; labelled compound (fluorescein); read-out: Kd, μM / Flu-dUTP
T3 construct: gene DNTT; expression per earlier publication
T3 sequence (P04053 whole entry F404A): as the sequence (P04053 whole entry F404W) above, with W404A counted along it

[4] = target: T4, TdT (human terminal deoxynucleotidyl transferase, hTdT) (Homo sapiens, UniProt P04053, F400A); assay: microscale thermophoresis (Monolith NT.[…]); assay type: binding; details: 50 mM Tris-HCl pH 8.0, 5 mM MnCl2, 37 °C; no primer listed; Hill coefficient fixed at 2; labelled compound (fluorescein); read-out: Kd, μM / Flu-dUTP
T4 construct: gene DNTT; expression per earlier publication
T4 sequence (P04053 whole entry F400A): as the sequence (P04053 whole entry F404W) above, with F400A, W404F counted along it

[5] = target: T5, TdT (human terminal deoxynucleotidyl transferase, hTdT) (Homo sapiens, UniProt P04053); assay: microscale thermophoresis (Monolith NT.[…]); assay type: binding; details: 50 mM Tris-HCl pH 8.0, 5 mM MnCl2, 37 °C; no primer listed; Hill coefficient fixed at 2; labelled compound (fluorescein); read-out: Kd, μM / Flu-dUTP
T5 construct: gene DNTT; expression per earlier publication
T5 sequence (P04053 whole entry): as the sequence (P04053 whole entry F404W) above, with W404F counted along it

TdT F404A = TdT F404A (human, UniProt P04053 1-509, F404A); assay: EMSA; 5 mM MgCl2; Hill h fixed at 2; EMSA: 50 mM Tris-HCl pH 8.0, 5 mM MgCl2, 7% glycerol; 0.5 uM FAM-M44, 0.06-10 uM protein; 10 min at 37 C then 5 min at 0 C; gel at 4 C; details: protein: recombinant; chain copies: 2; label: 5'-FAM; single strand
TdT F404A, sequence (P04053 whole entry F404A): as the sequence (P04053 whole entry F404W) above, with W404A counted along it

TdT F400A = TdT F400A (human, UniProt P04053 1-509, F400A); assay: as above; details: protein: recombinant; chain copies: 2; label: 5'-FAM; single strand
TdT F400A, sequence (P04053 whole entry F400A): as the sequence (P04053 whole entry F404W) above, with F400A, W404F counted along it

TdT WT = TdT WT (human, UniProt P04053 1-509); assay: as above; details: protein: recombinant; chain copies: 2; label: 5'-FAM; single strand
TdT WT, sequence (P04053 whole entry): as the sequence (P04053 whole entry F404W) above, with W404F counted along it

TdT F404W = TdT F404W (human, UniProt P04053 1-509, F404W); assay: as above; details: protein: recombinant; chain copies: 2; label: 5'-FAM; single strand
TdT F404W, sequence (P04053 whole entry F404W): as the sequence (P04053 whole entry F404W) above

TdT L397A = TdT L397A (human, UniProt P04053 1-509, L397A); assay: as above; details: protein: recombinant; chain copies: 2; label: 5'-FAM; single strand
TdT L397A, sequence (P04053 whole entry L397A): as the sequence (P04053 whole entry F404W) above, with L397A, W404F counted along it

Molecule | Kd [1] [µM] | Kd [2] [µM] | Kd [3] [µM] | Kd [4] [µM] | Kd [5] [µM] | Kd (TdT F404A) [nM] | Kd (TdT F400A) [nM] | Kd (TdT WT) [nM] | Kd (TdT F404W) [nM] | Kd (TdT L397A) [nM]
Flu-dUTP | 1 ± 0.1 | 1.5 ± 0.2 | 1.5 ± 0.2 | 1.1 ± 0.1 | 0.9 ± 0.1 | – | – | – | – | –
ATGCTATGGATTGATGTGACTAAGGTTGGAATGATGTGAAGAGA (ssDNA) [FAM-M44] | – | – | – | – | – | 1100 ± 90 | 980 ± 70 | 880 ± 80 | 1000 ± 100 | 970 ± 80
